What was measured:
Format in all cases: in vivo
[1] = system: wheat (winter wheat, Triticum aestivum); experiment: Test C greenhouse herbicide test, pre- and postemergence
In short: (§1)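 Pre- and postemergence greenhouse screen; values are visual control ratings, 0 meaning no effect and 100 complete kill, assigned relative to untreated plants after 13 to 15 d.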

[2] = system: johnsongrass (Sorghum halepense); experiment: as above
In short: as §1

[3] = system: nutsedge, yellow (yellow nutsedge, Cyperus esculentus); experiment: as above
In short: as §1

[4] = system: lambsquarters (Chenopodium album); experiment: as above
In short: as §1

[5] = system: pigweed (Amaranthus retroflexus); experiment: as above
In short: as §1

[6] = system: foxtail, giant (giant foxtail, Setaria faberii); experiment: as above
In short: as §1

[7] = system: velvetleaf (Abutilon theophrasti); experiment: as above
In short: as §1

[8] = system: waterhemp (common waterhemp, Amaranthus rudis); experiment: as above
In short: as §1

[9] = system: barnyardgrass (Echinochloa crus-galli); experiment: as above
In short: as §1

[10] = system: crabgrass, large (large crabgrass, Digitaria sanguinalis); experiment: as above
In short: as §1

[11] = system: oilseed rape (Brassica napus); experiment: as above
In short: as §1

[12] = system: blackgrass (Alopecurus myosuroides); experiment: as above
In short: as §1

[13] = system: morningglory (Ipomoea coccinea); experiment: as above
In short: as §1

[14] = system: corn (Zea mays); experiment: as above
In short: as §1

[15] = system: kochia (Kochia scoparia); experiment: Test C greenhouse herbicide test, postemergence; details: for Plant response rating, Kochia: Postemergence
In short: (§2)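 Seedlings are raised in pots of peat moss–vermiculite medium with starter nutrients, then receive postemergence test chemical at the 1- to 4-leaf stage. They are kept in the greenhouse 13 to 15 d and scored visually versus controls, 0 meaning no effect and 100 complete control.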

[16] = system: oat, wild (wild oat, Avena fatua); experiment: Test C greenhouse herbicide test, postemergence; details: for Plant response rating, Oat, Wild: Postemergence
In short: as §2

[17] = Postemergence, 125 g ai/ha, scale 0 to 100, 0 is no effect, 100 is complete control
[18] = Postemergence, 250 g ai/ha, scale 0 to 100, 0 no effect, 100 complete control, 13 to 15 d
[19] = Preemergence, 31 g ai/ha, scale 0 to 100, 0 is no effect, 100 is complete control
[20] = Preemergence, 62 g ai/ha, scale 0 to 100, 0 is no effect, 100 is complete control
[21] = Preemergence, 125 g ai/ha, scale 0 to 100, 0 is no effect, 100 is complete control
[22] = Preemergence, 250 g ai/ha, scale 0 to 100 (0 no effect, 100 complete control)
[23] = postemergence, 62 g ai/ha, scale 0 to 100, 0 no effect, 100 complete control
[24] = Postemergence, 31 g ai/ha, 0 to 100 scale (0 no effect, 100 complete control)
[25] = 125 g ai/ha, scale 0 to 100, 0 is no effect, 100 is complete control
[26] = 250 g ai/ha, scale 0 to 100, 0 no effect, 100 complete control, 13 to 15 d

Compound: Cc1cc(C)c2sc(C)c(-c3c(OC(=O)OCCCl)c(C)nn(C)c3=O)c2c1 [Compound 85]
- Plant response rating, Wheat [1, 17]: 0
- Plant response rating, Wheat [1, 18]: 0
- Plant response rating, Wheat [1, 19]: 0
- Plant response rating, Wheat [1, 20]: 0
- Plant response rating, Wheat [1, 21]: 0
- Wheat plant response rating [1, 22]: 5
- Wheat plant response rating [1, 23]: 0
- Plant response rating, Johnsongrass [2, 17]: 50
- Plant response rating, Johnsongrass [2, 18]: 25
- Plant response rating, Johnsongrass [2, 19]: 40
- Plant response rating, Johnsongrass [2, 20]: 30
- Plant response rating, Johnsongrass [2, 21]: 65
- Johnsongrass plant response rating [2, 22]: 40
- Johnsongrass plant response rating [2, 23]: 15
- Plant response rating, Nutsedge, Yellow [3, 17]: 95
- Plant response rating, Nutsedge, Yellow [3, 18]: 90
- Plant response rating, Nutsedge, Yellow [3, 19]: 70
- Plant response rating, Nutsedge, Yellow [3, 20]: 85
- Plant response rating, Nutsedge, Yellow [3, 21]: 75
- Nutsedge, Yellow plant response rating [3, 22]: 80
- Nutsedge, Yellow plant response rating [3, 23]: 85
- Plant response rating, Lambsquarters [4, 17]: 100
- Plant response rating, Lambsquarters [4, 18]: 100
- Plant response rating, Lambsquarters [4, 19]: 85
- Plant response rating, Lambsquarters [4, 20]: 90
- Plant response rating, Lambsquarters [4, 21]: 90
- Lambsquarters plant response rating [4, 22]: 100
- Lambsquarters plant response rating [4, 23]: 98
- Plant response rating, Pigweed [5, 17]: 85
- Plant response rating, Pigweed [5, 18]: 90
- Plant response rating, Pigweed [5, 19]: 100
- Plant response rating, Pigweed [5, 20]: 100
- Plant response rating, Pigweed [5, 21]: 100
- Pigweed plant response rating [5, 22]: 100
- Pigweed plant response rating [5, 23]: 85
- Plant response rating, Foxtail, Giant [6, 17]: 90
- Plant response rating, Foxtail, Giant [6, 18]: 90
- Plant response rating, Foxtail, Giant [6, 19]: 90
- Plant response rating, Foxtail, Giant [6, 20]: 98
- Plant response rating, Foxtail, Giant [6, 21]: 100
- Foxtail, Giant plant response rating [6, 22]: 100
- Foxtail, Giant plant response rating [6, 23]: 85
- Plant response rating, Velvetleaf [7, 17]: 85
- Plant response rating, Velvetleaf [7, 18]: 95
- Plant response rating, Velvetleaf [7, 19]: 50
- Plant response rating, Velvetleaf [7, 20]: 80
- Plant response rating, Velvetleaf [7, 21]: 85
- Velvetleaf plant response rating [7, 22]: 90
- Velvetleaf plant response rating [7, 23]: 85
- Plant response rating, Waterhemp [8, 17]: 85
- Plant response rating, Waterhemp [8, 18]: 85
- Plant response rating, Waterhemp [8, 19]: 60
- Plant response rating, Waterhemp [8, 20]: 80
- Plant response rating, Waterhemp [8, 21]: 90
- Waterhemp plant response rating [8, 22]: 100
- Waterhemp plant response rating [8, 23]: 65
- Barnyardgrass plant response rating [9, 24]: 25
- Plant response rating, Barnyardgrass [9, 17]: 40
- Plant response rating, Barnyardgrass [9, 18]: 50
- Plant response rating, Barnyardgrass [9, 19]: 35
- Plant response rating, Barnyardgrass [9, 20]: 60
- Plant response rating, Barnyardgrass [9, 21]: 80
- Barnyardgrass plant response rating [9, 22]: 90
- Barnyardgrass plant response rating [9, 23]: 45
- Plant response rating, Crabgrass, Large [10, 17]: 40
- Plant response rating, Crabgrass, Large [10, 18]: 45
- Plant response rating, Crabgrass, Large [10, 19]: 80
- Plant response rating, Crabgrass, Large [10, 20]: 85
- Plant response rating, Crabgrass, Large [10, 21]: 80
- Crabgrass, Large plant response rating [10, 22]: 85
- Crabgrass, Large plant response rating [10, 23]: 30
- Plant response rating, Oilseed Rape [11, 17]: 10
- Plant response rating, Oilseed Rape [11, 18]: 15
- Plant response rating, Oilseed Rape [11, 19]: 5
- Plant response rating, Oilseed Rape [11, 20]: 85
- Plant response rating, Oilseed Rape [11, 21]: 40
- Oilseed Rape plant response rating [11, 22]: 90
- Oilseed Rape plant response rating [11, 23]: 10
- Blackgrass plant response rating [12, 24]: 70
- Plant response rating, Blackgrass [12, 17]: 90
- Plant response rating, Blackgrass [12, 18]: 90
- Plant response rating, Blackgrass [12, 19]: 50
- Plant response rating, Blackgrass [12, 20]: 85
- Plant response rating, Blackgrass [12, 21]: 90
- Blackgrass plant response rating [12, 22]: 90
- Blackgrass plant response rating [12, 23]: 80
- Plant response rating, Morningglory [13, 17]: 100
- Plant response rating, Morningglory [13, 18]: 100
- Plant response rating, Morningglory [13, 19]: 85
- Plant response rating, Morningglory [13, 20]: 90
- Plant response rating, Morningglory [13, 21]: 95
- Morningglory plant response rating [13, 22]: 98
- Morningglory plant response rating [13, 23]: 98
- Corn plant response rating [14, 24]: 0
- Plant response rating, Corn [14, 17]: 0
- Plant response rating, Corn [14, 18]: 5
- Plant response rating, Corn [14, 19]: 0
- Plant response rating, Corn [14, 20]: 10
- Plant response rating, Corn [14, 21]: 0
- Corn plant response rating [14, 22]: 10
- Corn plant response rating [14, 23]: 0
- Plant response rating, Kochia [15, 25]: 60
- Plant response rating, Kochia [15, 26]: 70
- Kochia plant response rating [15, 23]: 70
- Plant response rating, Oat, Wild [16, 25]: 95
- Plant response rating, Oat, Wild [16, 26]: 90
- Oat, Wild plant response rating [16, 23]: 90

— patent publication US10597388B2, “Pyridazinone herbicides” (FMC CORPORATION, priority 2014, dated 2020)
